Results: US20160168140A1, “HETEROCYCLIC COMPOUNDS AS ANTIBIOTIC POTENTIATORS” (priority 2014, published 2016)
Read-outs that look alike come from different tables or passages of the source.

Tests used:
Assay type in all cases: cell-based
[1] = tested on: Acinetobacter baumannii (Ab23); test: MIC shift assay of antibiotics (broth microdilution); details: for Colistin MIC Shift: A. baumannii (MDR Ab), compd. concentration 4.0 μM, colistin MIC 0.5-1.0 μg/mL; for Colistin & Cmpd MIC shift / Colistin MIC with compound: compound at 10 μM; for colistin MIC shift, Ab23 at (compd concentration): fold shift of colistin MIC, nc = no changeover or no shift
How it was run: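 Broth microdilution MIC shift assay against Acinetobacter baumannii. Overnight cultures in cation-adjusted Mueller Hinton broth at 37° C. were sub-cultured 1:200, grown to OD600=0.5 to 0.8, diluted to OD600=0.01, and added (50 μL) to wells holding 50 μL of 2× antibiotic stocks for a starting OD600 of 0.005. After 18 to 20 h at 37° C. with shaking, OD600 was read to obtain MICs.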

E. coli = test: as above; details: for Colistin MIC Shift: E. coli (SCR1), compd. concentration 4.0 μM, colistin MIC 0.5-1.0 μg/mL; for MIC, agent alone / Colistin & Cmpd MIC shift / Colistin MIC with compound: Escherichia coli ATCC 25922 (MMX 102), QC, Colistin-S; for Colistin & Cmpd MIC shift / Colistin MIC with compound: compound at 10 μM
Method: (§1) Minimum inhibitory concentration (MIC) shift assays were performed to determine if the test compounds could alter the MIC of existing antibacterial drugs (e.g., ciprofloxacin and colistin) for E. coli, Acinetobacter baumannii, Klebsiella pneumoniae, Pseudomonas aeruginosa, and Enterobacter cloacae. The MIC shift assay is based on the standard broth microdilution MIC determination protocol of Wiegand et al, Nat Protoc. 3(2):163-75 (2008), with slight modifications that allow for the screening of up to seven test compounds in a single plate.
(§2) On the day before an assay, bacteria were grown overnight in cation-adjusted Mueller Hinton broth (CAMHB; Teknova, Hollister, Calif.) at 37° C. in an orbital shaker and sub-cultured at a 1:200 dilution the following morning. The cells were grown to OD600=0.5 to 0.8 and then diluted to OD600=0.01. From a serial dilution of each antibiotic at (50 μL of 2× concentrated stock solutions) several concentrations were added to the wells of a sterile, transparent round-bottom 96-well plate (Phenix Research Products, Candler, N.C.), and diluted cells (50 μL) were added to the plates for a starting OD600 of 0.005. Then, a test compound (2.5 μL) was added to each well to give a final concentration of 4 or 10 μM. A row of wells lacking test compound but containing the antibiotic was used to determine the MIC of that antibiotic alone. A column of wells lacking both antibiotic and test compound served as a growth control, and an additional column containing only CAMHB was included as a sterile blank control.
(§3) The plates were incubated for 18 to 20 h at 37° C. in an orbital shaker, and the cell density (OD600) was determined the following day in a microplate reader (PolarStar Optima, BMG Labtech). The MIC shift was determined by comparing the MIC of the antibiotic alone to the MIC of the antibiotic plus test compound.

Klebsiella pneumoniae = test: as above; details: for Colistin & Cmpd MIC shift / Colistin MIC with compound: compound at 10 μM
Method: as §1, §2, §3

Pseudomonas aeruginosa = test: as above; details: for Colistin & Cmpd MIC shift / Colistin MIC with compound: compound at 10 μM
Method: as §1, §2, §3

Serratia marcescens = test: Colistin MIC / MIC shift with compound at 10 μM (isolate panel, Table 19); details: Serratia marcescens 6147, Colistin-R; for Colistin & Cmpd MIC shift / Colistin MIC with compound: compound at 10 μM
Providencia stuartii = test: as above; details: Providencia stuartii 6644, Colistin-R; for Colistin & Cmpd MIC shift / Colistin MIC with compound: compound at 10 μM
Proteus vulgaris = test: as above; details: Proteus vulgaris 6240, Colistin-R; for Colistin & Cmpd MIC shift / Colistin MIC with compound: compound at 10 μM
Burkholderia cepacia = test: as above; details: Burkholderia cepacia 547, Colistin-R; for Colistin & Cmpd MIC shift / Colistin MIC with compound: compound at 10 μM
Staphylococcus aureus = test: as above; details: for Colistin & Cmpd MIC shift / Colistin MIC with compound: compound at 10 μM
[2] = Acinetobacter baumannii ATCC 19606 (MMX 1630), Colistin-S
[3] = Acinetobacter baumannii Ab23, Colistin-R
[4] = Klebsiella pneumoniae 2237, Colistin-R
[5] = Klebsiella pneumoniae ATCC 13883 (MMX 214), Colistin-S
[6] = Pseudomonas aeruginosa 1582, Colistin-I
[7] = Pseudomonas aeruginosa 6977, Colistin-R
[8] = Pseudomonas aeruginosa ATCC 27853 (MMX 103), QC, Colistin-S
[9] = Staphylococcus aureus ATCC 43300 (MMX 5999), MRSA

Cc1cccc2c(NCCCN(C)C)nc(-c3cc(-c4ccccc4)cc(C(F)(F)F)c3)nc12 [compound 343]
Colistin MIC Shift [1]: 8x | MIC, agent alone [1, 2]: 16 µg/mL | Colistin & Cmpd MIC shift [1, 2]: 17 | Colistin MIC with compound [1, 2]: 0.015 µg/mL | MIC, agent alone [1, 3]: 8 µg/mL | Colistin & Cmpd MIC shift [1, 3]: 4267 | Colistin MIC with compound [1, 3]: 0.015 µg/mL | colistin MIC shift, Ab23 at (compd concentration) ([1]; compound concentration 2 μM): 8-16x | Colistin MIC Shift (E. coli): 16x | MIC, agent alone (E. coli): > 32 µg/mL | Colistin & Cmpd MIC shift (E. coli): 8 | Colistin MIC with compound (E. coli): 0.015 µg/mL | MIC, agent alone (Klebsiella pneumoniae; [4]): > 32 µg/mL | Colistin & Cmpd MIC shift (Klebsiella pneumoniae; [4]): 128 | Colistin MIC with compound (Klebsiella pneumoniae; [4]): 0.25 µg/mL | MIC, agent alone (Klebsiella pneumoniae; [5]): > 32 µg/mL | Colistin & Cmpd MIC shift (Klebsiella pneumoniae; [5]): 8 | Colistin MIC with compound (Klebsiella pneumoniae; [5]): 0.015 µg/mL | MIC, agent alone (Pseudomonas aeruginosa; [6]): > 32 µg/mL | Colistin & Cmpd MIC shift (Pseudomonas aeruginosa; [6]): 2 | Colistin MIC with compound (Pseudomonas aeruginosa; [6]): 0.5 µg/mL | MIC, agent alone (Pseudomonas aeruginosa; [7]): > 32 µg/mL | Colistin & Cmpd MIC shift (Pseudomonas aeruginosa; [7]): 64 | Colistin MIC with compound (Pseudomonas aeruginosa; [7]): 1 µg/mL | MIC, agent alone (Pseudomonas aeruginosa; [8]): > 32 µg/mL | Colistin & Cmpd MIC shift (Pseudomonas aeruginosa; [8]): 4 | Colistin MIC with compound (Pseudomonas aeruginosa; [8]): 0.06 µg/mL | MIC, agent alone (Serratia marcescens): > 32 µg/mL | Colistin & Cmpd MIC shift (Serratia marcescens): 256 | Colistin MIC with compound (Serratia marcescens): 0.25 µg/mL | MIC, agent alone (Providencia stuartii): > 32 µg/mL | Colistin & Cmpd MIC shift (Providencia stuartii): 4 | Colistin MIC with compound (Providencia stuartii): > 16 µg/mL | MIC, agent alone (Proteus vulgaris): > 32 µg/mL | Colistin & Cmpd MIC shift (Proteus vulgaris): 4 | Colistin MIC with compound (Proteus vulgaris): > 16 µg/mL | MIC, agent alone (Burkholderia cepacia): > 32 µg/mL | Colistin & Cmpd MIC shift (Burkholderia cepacia): 4 | Colistin MIC with compound (Burkholderia cepacia): > 16 µg/mL | MIC, agent alone (Staphylococcus aureus): 1 µg/mL | MIC, agent alone (Staphylococcus aureus; [9]): 1 µg/mL | Colistin & Cmpd MIC shift (Staphylococcus aureus; [9]): 4267 | Colistin MIC with compound (Staphylococcus aureus; [9]): ≤ 0.015 µg/mL | Colistin & Cmpd MIC shift (Staphylococcus aureus): 4267 | Colistin MIC with compound (Staphylococcus aureus): ≤ 0.015 µg/mL

Clc1ccc2[nH]cc(-c3ccc(Cl)c(Cl)c3)c2c1 [compound 429]
Colistin MIC Shift [1]: 2x | MIC, agent alone [1, 2]: > 32 µg/mL | Colistin & Cmpd MIC shift [1, 2]: 8 | Colistin MIC with compound [1, 2]: 0.03 µg/mL | MIC, agent alone [1, 3]: > 32 µg/mL | Colistin & Cmpd MIC shift [1, 3]: 2133 | Colistin MIC with compound [1, 3]: 0.03 µg/mL | MIC Shift of Ciprofloxacin ([1]; Compd. No. 429 concentration 8 μM, antibiotic Ciprofloxacin, A. baumannii (Ab23)): ≧32x | MIC Shift of Levofloxacin ([1]; Compd. No. 429 concentration 8 μM, antibiotic Levofloxacin, A. baumannii (Ab23)): ≧64x | MIC Shift of Meropenem ([1]; Compd. No. 429 concentration 8 μM, antibiotic Meropenem, A. baumannii (Ab23)): ≧16x | MIC Shift of Tobramycin ([1]; Compd. No. 429 concentration 8 μM, antibiotic Tobramycin, A. baumannii (Ab23)): ≧16x | colistin MIC shift, Ab23 at (compd concentration) ([1]; compound concentration 1 μM): 4x (1 μM); | colistin MIC shift, Ab23 at (compd concentration) ([1]; compound concentration 2 μM): ≧16x (2μM) | Colistin MIC Shift (E. coli): 4x | MIC, agent alone (E. coli): > 32 µg/mL | Colistin & Cmpd MIC shift (E. coli): 8 | Colistin MIC with compound (E. coli): 0.015 µg/mL | MIC, agent alone (Klebsiella pneumoniae; [4]): > 32 µg/mL | Colistin & Cmpd MIC shift (Klebsiella pneumoniae; [4]): 128 | Colistin MIC with compound (Klebsiella pneumoniae; [4]): 0.25 µg/mL | MIC, agent alone (Klebsiella pneumoniae; [5]): > 32 µg/mL | Colistin & Cmpd MIC shift (Klebsiella pneumoniae; [5]): 4 | Colistin MIC with compound (Klebsiella pneumoniae; [5]): 0.03 µg/mL | MIC, agent alone (Pseudomonas aeruginosa; [6]): > 32 µg/mL | Colistin & Cmpd MIC shift (Pseudomonas aeruginosa; [6]): 16 | Colistin MIC with compound (Pseudomonas aeruginosa; [6]): 0.25 µg/mL | MIC, agent alone (Pseudomonas aeruginosa; [7]): > 32 µg/mL | Colistin & Cmpd MIC shift (Pseudomonas aeruginosa; [7]): 64 | Colistin MIC with compound (Pseudomonas aeruginosa; [7]): 1 µg/mL | MIC, agent alone (Pseudomonas aeruginosa; [8]): > 32 µg/mL | Colistin & Cmpd MIC shift (Pseudomonas aeruginosa; [8]): 2 | Colistin MIC with compound (Pseudomonas aeruginosa; [8]): 0.12 µg/mL | MIC, agent alone (Serratia marcescens): > 32 µg/mL | Colistin & Cmpd MIC shift (Serratia marcescens): 256 | Colistin MIC with compound (Serratia marcescens): 0.25 µg/mL | MIC, agent alone (Providencia stuartii): > 32 µg/mL | Colistin & Cmpd MIC shift (Providencia stuartii): 4 | Colistin MIC with compound (Providencia stuartii): 16 µg/mL | MIC, agent alone (Proteus vulgaris): > 32 µg/mL | Colistin & Cmpd MIC shift (Proteus vulgaris): 1067 | Colistin MIC with compound (Proteus vulgaris): 0.06 µg/mL | MIC, agent alone (Burkholderia cepacia): > 32 µg/mL | Colistin & Cmpd MIC shift (Burkholderia cepacia): 4 | Colistin MIC with compound (Burkholderia cepacia): > 16 µg/mL | MIC, agent alone (Staphylococcus aureus): 2 µg/mL | MIC, agent alone (Staphylococcus aureus; [9]): 2 µg/mL | Colistin & Cmpd MIC shift (Staphylococcus aureus; [9]): 4267 | Colistin MIC with compound (Staphylococcus aureus; [9]): ≤ 0.015 µg/mL | Colistin & Cmpd MIC shift (Staphylococcus aureus): 4267 | Colistin MIC with compound (Staphylococcus aureus): ≤ 0.015 µg/mL
